In brackets after ≈: the same amount, converted by molar mass.

Experimental findings from ChEMBL document CHEMBL4033728, “Synthesis and structure-activity relationship study of novel quinazolinone-based inhibitors of MurA” (Bioorg Med Chem Lett, 2017) are described below.

Test [1] is described as follows: Inhibition of Escherichia coli MurA.
In test [2] the test system is Staphylococcus aureus. Put plainly: Antibacterial activity against Staphylococcus aureus. It is filed as functional.
The subject of test [3] is Escherichia coli. Description: Antibacterial activity against Escherichia coli. In kind it is functional.
Test [4] in a line: Inhibition of Escherichia coli MurA using UDP-GlcNAc and PEP as substrate incubated for 15 mins by Malachite green method.
Test [5] has as its system Escherichia coli. Put plainly: Antibacterial activity against Escherichia coli ATCC 25922 incubated for 18 to 24 hrs by broth microdilution method. It is filed as functional.
The subject of test [6] is Staphylococcus aureus. Description: Antibacterial activity against Staphylococcus aureus ATCC 29213 incubated for 18 to 24 hrs by broth microdilution method. It is filed as functional.

For `C[C@@H]1O[C@@H]1P(=O)(O)O` [FOSFOMYCIN], the half-maximal inhibitory concentration (IC50) in test [1] stood at 8.8 µM. Further, the MIC in the test with Staphylococcus aureus [2] and with Escherichia coli [3] was 16 µg/mL (≈ 116 µM) each time.

As to `CC(C)n1c(-c2ccc([N+](=O)[O-])o2)nc2ccccc2c1=O`, the IC50 in test [4] amounted to 87 µM. Moreover, the values for the MIC against Escherichia coli [5] and in the test with Staphylococcus aureus [6] were 2 µg/mL (≈ 6.68 µM) and 8 µg/mL (≈ 26.7 µM), respectively.

In test [4], `O=c1[nH]c(-c2ccc(Br)o2)nc2ccccc12` showed an IC50 of 56 µM. For the same molecule, the MIC in the test with Escherichia coli [5] and in the test with Staphylococcus aureus [6] was over 128 µg/mL throughout.

As to `Cn1c(-c2ccco2)nc2ccccc2c1=O`, the midpoint of inhibition in test [4], the IC50, lay at 72 µM. Moreover, the MIC in the test with Escherichia coli [5] and with Staphylococcus aureus [6] was over 128 µg/mL throughout.

Turning to `O=c1[nH]c(-c2ccc(OCc3ccccc3)cc2)nc2ccccc12`, 36 µM corresponded to half-maximal inhibition in test [4] (IC50). Also, the MIC against Escherichia coli [5] and with Staphylococcus aureus [6] was over 128 µg/mL throughout.

In turn, `CCCCCCCOc1ccc(-c2nc3ccccc3c(=O)[nH]2)cc1` had an IC50 in test [4] of 84 µM. Also, the MIC against Escherichia coli [5] and in the test with Staphylococcus aureus [6] was over 128 µg/mL throughout.

`COC(=O)c1ccc(COc2cccc(-c3nc4ccccc4c(=O)[nH]3)c2)cc1` came in with an IC50 in test [4] of 21 µM. Moreover, the MIC in the test with Escherichia coli [5] and against Staphylococcus aureus [6] was over 128 µg/mL in each case.

As for `Cn1cc[n+](C(Cn2cnc3ccc(Cl)cc3c2=O)c2cc3cc(Br)ccc3o2)c1.[Cl-]` (stereo not drawn), the MIC with Staphylococcus aureus [2] was 16 µg/mL; against Escherichia coli [3], 128 µg/mL.
